Test results published in ChEMBL document CHEMBL1201862, “PubChem BioAssay data set” (2004).
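How tested: cells in 96-well plates exposed to compound for 48 hours at five concentrations. Here, GI50 denotes the concentration required for 50% inhibition of growth.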 Calls of active or inactive are those of the source. Cut-off read from the data, not from the text of the source: active = GI50 up to about 1.1 µM and inactive = higher.

Key:
Experiment in all cases: NCI tumour cell line growth inhibition, 48 h
[1] = test system: 786-0
[2] = test system: A498
[3] = test system: A549
[4] = test system: ACHN
[5] = test system: CAKI-1
[6] = test system: COLO 205
[7] = test system: DLD-1
[8] = test system: DMS-273
[9] = test system: EKVX
[10] = test system: HCC 2998
[11] = test system: HCT-116
[12] = test system: HCT-15
[13] = test system: HL-60
[14] = test system: HOP-18
[15] = test system: HOP-62
[16] = test system: HOP-92
[17] = test system: HT-29
[18] = test system: IGROV-1
[19] = test system: K562
[20] = test system: KM-20L2
[21] = test system: KM12
[22] = test system: LOX IMVI
[23] = test system: LXFL 529
[24] = test system: M14
[25] = test system: M19-MEL
[26] = test system: MOLT-4
[27] = test system: Malme-3M
[28] = test system: NCI-H226
[29] = test system: NCI-H23
[30] = test system: NCI-H460
[31] = test system: NCI-H522
[32] = test system: OVCAR-3
[33] = test system: OVCAR-4
[34] = test system: OVCAR-5
[35] = test system: OVCAR-8
[36] = test system: RPMI-8226
[37] = test system: RXF 393
[38] = test system: SF-268
[39] = test system: SF-295
[40] = test system: SF-539
[41] = test system: SK-MEL-28
[42] = test system: SK-MEL-5
[43] = test system: SK-OV-3
[44] = test system: SN12C
[45] = test system: SNB-19
[46] = test system: SNB-75
[47] = test system: SNB-78
[48] = test system: SR
[49] = test system: SW-620
[50] = test system: TK-10
[51] = test system: U-251
[52] = test system: UACC-257
[53] = test system: UACC-62
[54] = test system: UO-31
[55] = test system: XF498

`Cc1ccc(S(=O)OCC23CC4CC(CC(C4)C2)C3)cc1` (stereo not given) was tested, and the GI50 [1] was > 100 µM (inactive), the GI50 [2] was > 100 µM (inactive) and the GI50 [3] was > 100 µM (inactive). For the same compound, the GI50 [4] was > 100 µM (inactive), the GI50 [5] was > 100 µM (inactive) and the GI50 [6] was > 100 µM (inactive). For the same compound, the GI50 [7] was > 100 µM (inactive), the GI50 [8] was > 100 µM (inactive) and the GI50 [9] was > 100 µM (inactive). For the same compound, the GI50 [10] was > 100 µM (inactive), the GI50 [11] was > 100 µM (inactive) and the GI50 [12] was > 100 µM. For the same compound, the GI50 [13] was > 100 µM (inactive), the GI50 [14] was > 100 µM (inactive) and the GI50 [15] was > 100 µM (inactive). For the same compound, the GI50 [16] was > 100 µM (inactive), the GI50 [17] was > 100 µM (inactive) and the GI50 [18] was > 100 µM (inactive). For the same compound, the GI50 [19] was > 100 µM (inactive), the GI50 [20] was > 100 µM (inactive) and the GI50 [21] was > 100 µM (inactive). The GI50 [22] was > 100 µM (inactive), the GI50 [23] was > 100 µM (inactive) and the GI50 [24] was > 100 µM (inactive). The GI50 [25] was > 100 µM (inactive), the GI50 [26] was > 100 µM (inactive) and the GI50 [27] was > 100 µM (inactive). For the same compound, the GI50 [28] was > 100 µM (inactive), the GI50 [29] was > 100 µM (inactive) and the GI50 [30] was > 100 µM (inactive). For the same compound, the GI50 [31] was > 100 µM (inactive), the GI50 [32] was > 100 µM (inactive) and the GI50 [33] was > 100 µM (inactive). The GI50 [34] was > 100 µM (inactive), the GI50 [35] was > 100 µM (inactive) and the GI50 [36] was > 100 µM (inactive). The GI50 [37] was > 100 µM (inactive), the GI50 [38] was > 100 µM (inactive) and the GI50 [39] was > 100 µM (inactive). For the same compound, the GI50 [40] was > 100 µM (inactive), the GI50 [41] was > 100 µM (inactive) and the GI50 [42] was > 100 µM (inactive). The GI50 [43] was > 100 µM (inactive), the GI50 [44] was > 100 µM (inactive) and the GI50 [45] was > 100 µM (inactive). For the same compound, the GI50 [46] was > 100 µM (inactive), the GI50 [47] was > 100 µM (inactive) and the GI50 [48] was > 100 µM (inactive). The GI50 [49] was > 100 µM (inactive), the GI50 [50] was > 100 µM (inactive) and the GI50 [51] was > 100 µM (inactive). For the same compound, the GI50 [52] was > 100 µM (inactive), the GI50 [53] was > 100 µM (inactive) and the GI50 [54] was 72.8 µM (inactive). The GI50 [55] was > 100 µM (inactive).
